Data set [1] deals with RAW264.7. The experiment in a line: Cytotoxicity against mouse RAW264.7 cells assessed as decrease in cell viability incubated for 20 hrs by EZ-cytox assay. The format is cell-based. The following applies: RAW264.7, 20 h.
In data set [2] the test system is RAW264.7. The experiment in a line: Downregulation of TNFalpha mRNA expression levels in mouse RAW264.7 cells at 5 to 10 ug/ml preincubated for 1 hr followed by LPS-stimulation for 4 hrs by qRT-PCR method. The format is functional, cell-based. (In general: Quantitative PCR measures a nucleic acid by following its amplification.)
Data set [3] concerns the target T1, NF-kappa-B inhibitor alpha (Mus musculus) (UniProt Q9Z1E3).
T1 sequence (whole entry): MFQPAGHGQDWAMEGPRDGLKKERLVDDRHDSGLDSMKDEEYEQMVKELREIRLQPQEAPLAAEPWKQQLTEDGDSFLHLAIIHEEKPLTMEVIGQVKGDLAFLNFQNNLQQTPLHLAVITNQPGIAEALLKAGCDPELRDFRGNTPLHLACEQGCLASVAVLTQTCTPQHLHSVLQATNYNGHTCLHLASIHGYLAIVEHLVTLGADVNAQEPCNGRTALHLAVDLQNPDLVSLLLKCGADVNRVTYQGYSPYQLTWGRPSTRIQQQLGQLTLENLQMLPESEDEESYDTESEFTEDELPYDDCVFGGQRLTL
Nature of the data set: Inhibition of IkappaBalpha phosphorylation in mouse RAW264.7 cells at 5 to 10 ug/ml preincubated for 1 hr followed by LPS-stimulation for 1 hr by Western blot method. The format is cell-based. In general terms: A western blot detects proteins with antibodies after separation by electrophoresis.

Data set [4] concerns the target Signal transducer and activator of transcription 3 (Mus musculus) (UniProt P42227). The experiment in a line: Inhibition of STAT3 phosphorylation at S727 residue in mouse RAW264.7 cells preincubated for 1 hr followed by LPS-stimulation for 20 hrs by Western blot analysis. The format is cell-based.
The species entered for data set [5] is Mus musculus. Nature of the data set: Inhibition of ERK-phosphorylation in mouse RAW264.7 cells at 5 to 10 ug/ml preincubated for 1 hr followed by LPS-stimulation for 1 hr by Western blot analysis. The format is cell-based.
Data set [6] concerns the target T2, Nitric oxide synthase, inducible (Mus musculus) (UniProt P29477).
T2 sequence (whole entry): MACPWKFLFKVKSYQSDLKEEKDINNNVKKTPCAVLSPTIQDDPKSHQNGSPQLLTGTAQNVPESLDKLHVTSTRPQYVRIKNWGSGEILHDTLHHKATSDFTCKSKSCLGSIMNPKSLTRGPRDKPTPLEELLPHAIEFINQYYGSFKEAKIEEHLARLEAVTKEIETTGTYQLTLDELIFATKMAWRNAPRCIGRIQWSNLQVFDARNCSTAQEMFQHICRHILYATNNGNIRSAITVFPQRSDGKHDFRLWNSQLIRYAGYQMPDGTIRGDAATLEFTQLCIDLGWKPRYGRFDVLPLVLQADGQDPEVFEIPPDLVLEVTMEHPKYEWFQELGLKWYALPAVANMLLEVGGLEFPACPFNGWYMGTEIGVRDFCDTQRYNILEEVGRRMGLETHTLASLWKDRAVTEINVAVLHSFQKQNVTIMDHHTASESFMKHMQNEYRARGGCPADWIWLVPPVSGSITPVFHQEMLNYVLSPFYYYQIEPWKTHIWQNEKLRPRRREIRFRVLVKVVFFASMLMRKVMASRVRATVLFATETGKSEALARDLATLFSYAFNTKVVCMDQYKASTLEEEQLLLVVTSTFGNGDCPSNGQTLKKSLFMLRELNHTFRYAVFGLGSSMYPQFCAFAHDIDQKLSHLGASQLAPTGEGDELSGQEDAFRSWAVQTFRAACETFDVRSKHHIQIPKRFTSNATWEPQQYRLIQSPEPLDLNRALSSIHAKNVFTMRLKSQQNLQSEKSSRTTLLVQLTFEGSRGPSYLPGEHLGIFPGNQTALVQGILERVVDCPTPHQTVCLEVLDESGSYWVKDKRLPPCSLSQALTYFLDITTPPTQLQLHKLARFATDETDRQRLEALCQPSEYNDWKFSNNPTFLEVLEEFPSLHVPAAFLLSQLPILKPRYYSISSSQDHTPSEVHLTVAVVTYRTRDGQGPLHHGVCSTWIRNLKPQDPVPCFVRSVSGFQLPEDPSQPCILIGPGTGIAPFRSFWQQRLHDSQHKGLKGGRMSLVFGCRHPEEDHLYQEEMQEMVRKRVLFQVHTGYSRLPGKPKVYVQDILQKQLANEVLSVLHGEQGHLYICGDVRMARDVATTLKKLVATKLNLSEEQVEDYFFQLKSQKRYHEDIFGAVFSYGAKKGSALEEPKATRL
Nature of the data set: Inhibition of LPS-induced iNOS expression in mouse RAW264.7 cells at 5 to 10 ug/ml pretreated for 1 hr followed by LPS stimulation for 20 hrs by immunoblotting method. The format is cell-based.

Data set [7] concerns the target MAP kinase p38 (Mus musculus) (UniProt P47811+O08911+Q9WUI1+Q9Z1B7). The experiment in a line: Inhibition of p38-phosphorylation in mouse RAW264.7 cells at 5 to 10 ug/ml preincubated for 1 hr followed by LPS-stimulation for 1 hr by Western blot analysis. The format is cell-based.
Data set [8] has as its system RAW264.7. The experiment in a line: Antiinflammatory activity in mouse RAW264.7 cells assessed as inhibition of LPS-induced IL-6 production preincubated for 1 hr followed by LPS addition for 20 hrs by sandwich ELISA. The format is functional, cell-based. In general terms: An ELISA detects its analyte on a solid surface through an enzyme-linked reagent.
For data set [9], the system named is RAW264.7. The experiment in a line: Downregulation of IL-6 mRNA expression levels in mouse RAW264.7 cells at 5 to 10 ug/ml preincubated for 1 hr followed by LPS-stimulation for 4 hrs by qRT-PCR method. The format is functional, cell-based.
Data set [10] has as its target Protein c-Fos (Mus musculus) (UniProt P01101). The experiment in a line: Inhibition of c-fos-phosphorylation in mouse RAW264.7 cells preincubated for 1 hr followed by LPS-stimulation for 20 hrs by Western blot analysis. The format is cell-based.
Data set [11] deals with RAW264.7. The experiment in a line: Cytotoxicity against mouse RAW264.7 cells assessed as decrease in cell viability at 1 to 12 ug/ml pretreated for 1 hr followed by LPS stimulation for 20 hrs by CCK8/EZ-cytox assay. The format is cell-based. To be noted: raw264.7, 20 h.
Data set [12] has as its system RAW264.7. The experiment in a line: Downregulation of iNOS mRNA expression levels in mouse RAW264.7 cells at 5 to 10 ug/ml preincubated for 1 hr followed by LPS-stimulation for 4 hrs by qRT-PCR method. The format is functional, cell-based.
Data set [13] relates to RAW264.7. Nature of the data set: Antiinflammatory activity in mouse RAW264.7 cells assessed as inhibition of LPS-induced TNFalpha release preincubated for 1 hr followed by LPS addition for 20 hrs by sandwich ELISA. The format is functional, cell-based.
The species entered for data set [14] is Mus musculus. The experiment in a line: Inhibition of JNK-phosphorylation in mouse RAW264.7 cells at 5 to 10 ug/ml preincubated for 1 hr followed by LPS-stimulation for 1 hr by Western blot analysis. The format is cell-based.
In data set [15] the target is T1, NF-kappa-B inhibitor alpha (Mus musculus). Nature of the data set: Inhibition of IkappaBalpha degradation in mouse RAW264.7 cells at 5 to 10 ug/ml preincubated for 1 hr followed by LPS-stimulation for 1 hr by Western blot method. The format is cell-based.
For data set [16], the target named is Signal transducer and activator of transcription 3 (Mus musculus) (UniProt P42227). The experiment in a line: Inhibition of STAT3 phosphorylation at Y705 residue in mouse RAW264.7 cells preincubated for 1 hr followed by LPS-stimulation for 20 hrs by Western blot analysis. The format is cell-based.
Chain of Signal transducer and activator of transcription 3 (Mus musculus) (P42227 whole entry): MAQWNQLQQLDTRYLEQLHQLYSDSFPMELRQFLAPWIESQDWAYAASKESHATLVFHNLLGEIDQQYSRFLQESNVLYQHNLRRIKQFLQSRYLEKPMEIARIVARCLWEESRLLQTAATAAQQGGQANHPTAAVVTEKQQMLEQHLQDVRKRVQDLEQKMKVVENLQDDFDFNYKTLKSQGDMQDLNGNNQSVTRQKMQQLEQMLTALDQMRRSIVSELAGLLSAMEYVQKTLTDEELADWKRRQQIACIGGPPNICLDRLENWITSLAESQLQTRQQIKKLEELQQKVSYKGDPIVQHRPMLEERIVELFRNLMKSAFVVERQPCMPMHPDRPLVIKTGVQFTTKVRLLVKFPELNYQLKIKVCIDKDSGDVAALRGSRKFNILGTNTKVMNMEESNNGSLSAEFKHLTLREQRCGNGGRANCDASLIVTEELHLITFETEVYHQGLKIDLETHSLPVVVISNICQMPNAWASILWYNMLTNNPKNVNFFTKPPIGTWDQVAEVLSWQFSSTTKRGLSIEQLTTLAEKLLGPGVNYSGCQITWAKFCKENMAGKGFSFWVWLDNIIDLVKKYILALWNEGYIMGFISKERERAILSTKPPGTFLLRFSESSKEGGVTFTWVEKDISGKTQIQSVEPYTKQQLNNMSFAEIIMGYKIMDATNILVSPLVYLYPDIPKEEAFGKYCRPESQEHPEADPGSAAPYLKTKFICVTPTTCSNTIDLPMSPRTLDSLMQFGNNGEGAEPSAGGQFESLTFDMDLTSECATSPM
In data set [17] the test system is RAW264.7. The experiment in a line: Inhibition of LPS-induced NO production in mouse RAW264.7 cells at 2 to 10 ug/ml preincubated for 1 hr followed by LPS-stimulation measured after 20 hrs by Griess assay. The format is functional, cell-based.
In data set [18] the target is RAC-alpha serine/threonine-protein kinase (Mus musculus) (UniProt P31750). The experiment in a line: Inhibition of Akt-phosphorylation in mouse RAW264.7 cells at 5 to 10 ug/ml preincubated for 1 hr followed by LPS-stimulation for 1 hr by Western blot analysis. The format is cell-based.
Chain of RAC-alpha serine/threonine-protein kinase (Mus musculus) (P31750 whole entry): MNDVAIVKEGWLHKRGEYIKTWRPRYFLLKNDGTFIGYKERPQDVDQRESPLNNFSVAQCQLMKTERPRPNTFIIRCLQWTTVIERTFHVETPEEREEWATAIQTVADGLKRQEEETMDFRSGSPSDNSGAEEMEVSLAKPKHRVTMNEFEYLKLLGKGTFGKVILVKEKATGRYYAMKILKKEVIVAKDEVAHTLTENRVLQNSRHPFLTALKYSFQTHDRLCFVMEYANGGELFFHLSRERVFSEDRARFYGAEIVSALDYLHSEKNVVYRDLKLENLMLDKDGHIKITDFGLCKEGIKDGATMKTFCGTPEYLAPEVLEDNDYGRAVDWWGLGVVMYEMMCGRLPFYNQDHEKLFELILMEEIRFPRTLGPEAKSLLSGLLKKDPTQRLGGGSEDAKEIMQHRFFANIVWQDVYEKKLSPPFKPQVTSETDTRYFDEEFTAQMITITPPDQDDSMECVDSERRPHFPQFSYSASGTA

Converted amounts (≈) assume the structure as drawn. The source made the active and inactive calls. The calls are words filed in the database; no cut-off is given here.

For one molecule, IC50, Activity and inhibition results are on record in ChEMBL document CHEMBL4020798, “Anti-inflammatory effects and corresponding mechanisms of cirsimaritin extracted from Cirsium japonicum var. maackii Maxim” (Bioorg Med Chem Lett, 2017).

One may read the IC50 as the concentration that gives 50% inhibition.

Chain of Protein c-Fos (Mus musculus) (P01101 whole entry): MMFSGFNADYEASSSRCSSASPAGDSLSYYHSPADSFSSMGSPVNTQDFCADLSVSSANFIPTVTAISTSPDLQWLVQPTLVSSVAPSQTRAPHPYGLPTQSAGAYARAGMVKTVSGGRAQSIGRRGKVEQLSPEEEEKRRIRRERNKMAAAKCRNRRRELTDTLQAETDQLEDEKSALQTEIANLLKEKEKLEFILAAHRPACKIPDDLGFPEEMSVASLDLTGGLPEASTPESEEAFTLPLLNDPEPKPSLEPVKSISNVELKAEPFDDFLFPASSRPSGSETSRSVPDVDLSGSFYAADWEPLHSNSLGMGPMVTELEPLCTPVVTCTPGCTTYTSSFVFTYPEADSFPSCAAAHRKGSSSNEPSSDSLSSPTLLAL

As for `COc1cc2oc(-c3ccc(O)cc3)cc(=O)c2c(O)c1OC` [CIRSIMARITIN], in the data set with RAW264.7 [1], the IC50 is 111 µg/mL (≈ 353 µM). Besides, the Activity entry was “Dose-dependent effect” with RAW264.7 [2], “Dose-dependent effect” with RAW264.7 [9], “Non-Toxic” in the data set on RAW264.7 [11] and “Dose-dependent effect” with RAW264.7 [12]. For the same molecule, the inhibition result (in data set [3]; in data set [6]; in data set [15]; with RAW264.7 [17]; in data set [18]) was “Active” in each case. Further, the inhibition result (in data set [4]; with RAW264.7 [8]; in [10]; in the data set with RAW264.7 [13]; in data set [16]) was “Dose-dependent effect” throughout. Moreover, the inhibition result (in the data set filed under Mus musculus [5]; in [7]; in the data set listed under Mus musculus [14]) was “inactive” throughout.
